Experimental data: patent US20260347353A1, “INDOLIZINE DERIVATIVES FOR TREATING CANCER” (Antares Therapeutics, Inc., priority 2022, published 2026)
pIC50, pKd: −log10 of the molar value.

Assays:
[1] = biological target: T1, p53 Y220C mutant protein (amino acid residues 94-293) (Homo sapiens, UniProt P04637, Y220C); test: Surface Plasmon Resonance (SPR) assay, p53 Y220C Kd_kinetic; conditions: multi-cycle kinetics, 16 or 20 °C, pH 7.5, 1:1 binding model
T1 construct: p53 Y220C mutant protein (amino acid residues 94-293)
In short: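 Kd from multi-cycle SPR kinetics fitted to a 1:1 model, using 2-fold, 7-point compound series over p53 Y220C (residues 94-293). Flow 30 μL/min, 60 s association, 120 s dissociation, at 16 or 20 °C in 50 mM Tris pH 7.5, 100 mM NaCl, 1 mM DTT, 0.01% Brij35, 0.05% Tween-20, 1% DMSO.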

[2] = biological target: T1, p53 Y220C mutant protein (amino acid residues 94-293); test: Thermal Shift Assay (TSA), p53 Y220C dTM; format: binding
Protocol: […] The volume is 5 μL/well. The sealed plate is then loaded onto a QuantStudio 7 Flex instrument for melting temperature (TM) measurement. The temperature is increased from 30 °C to 50 °C, at a rate of 0.03 °C/second. Data are fit into a Boltzmann two-state model to determine the TM.

p53 Y220C = p53 Y220C (Homo sapiens, UniProt P04637, Y220C); test: Luciferase Reporter Assay, p53 Y220C (NCIH1299 cells with inducible p53 Y220C and p53 response element-luciferase); format: cell-based; conditions: 6 hour compound treatment, read-out: Luc P53 Y220C AC50
In short: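 NCI-H1299 cells stably carrying a p53 response element-luciferase reporter and Tet-inducible p53 Y220C were induced with 0.5 ug/mL doxycycline for 24 h, then treated with compound for 6 h. Luminescence was read after One-Glo addition. AC50 was derived relative to 10 uM tool compound as positive control.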

NUGC3 cells (p53 Y220C) = test: Cell Proliferation Assay (CellTiter-Glo), NUGC3 p53 Y220C; format: cell-based; conditions: Homo sapiens, NUGC-3, 120 h, 5 days, read-out: CTG NUGC3 P53 Y220C IC50
In short: (§1)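 Seeded at 250–500 cells/well, then compound-treated for 5 days; the NCIH1299 lines carry Tet-One inducible p53 Y220C or R273H transduced lentivirally. Viability by CellTiter-Glo luminescence after 10 min at room temperature; IC50 calculated.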

[3] = system: NCIH1299-inducible p53 Y220C cells; test: Cell Proliferation Assay (CellTiter-Glo), NCIH1299-inducible p53 Y220C; format: cell-based; conditions: Homo sapiens, NCI-H1299, 120 h, 5 days, read-out: CTG H1299 P53 Y220C IC50
In short: as §1

[4] = system: NCIH1299-inducible p53 R273H cells; test: Cell Proliferation Assay (CellTiter-Glo), NCIH1299-inducible p53 R273H; format: cell-based; conditions: Homo sapiens, NCI-H1299, 120 h, 5 days, read-out: CTG H1299 P53 R273H IC50
Protocol: Inducible p53 Y220C and R273H constructs (Tet-One inducible expression system; Takara) were stably expressed in NCIH1299 cells by lentiviral transduction. NUGC3, A549, BxPC3, T3M4, HuH7, HCC2935, MFE296, NCIH1299, NCIH1299-inducible p53 Y220C, and NCIH1299-inducible p53 R273H cell lines were used for cell proliferation assay. 250-500 cells were seeded in each well of 384 plate and then compounds were dispensed into each well using Echo or Tecan. After 5 days of incubation, equal volume of CellTiter-Glo reagent (G7570; Promega) was added into each well and the plate was incubated at room temperature for 10 minutes with shaking. The luminescent signal was measured by PheraStar microplate reader and IC50 was calculated.

Row | Compound | pKd [1] | ΔTm at 10 µM ([2]; 10 uM compound) [°C] | ΔTm at 100 µM ([2]; 100 μM compound, 3 hours at 20 °C, pH 7.4) [°C] | AC50 (p53 Y220C) [nM] | pIC50 (NUGC3 cells (p53 Y220C)) | pIC50 [3] | pIC50 [4]
1 | CN1CC[C@@H](Nc2cccn3c(SC(F)(F)F)c(-c4noc(CNC(=O)C5CC5)n4)nc23)[C@@H](F)C1 [Example 1, N-{[3-(8-{[(3S,4R)-3-fluoro-1-methylpiperidin-4-yl]amino}-3-[(trifluoromethyl)sulfanyl]imidazo[1,2-a]pyridin-2-yl)-1,2,4-oxadiazol-5-yl]methyl}cyclopropanecarboxamide] | 7.00 to 8.00 | 5 to 10 | 5 to 10 | ≥ 3000 | ≤ 5.52 | ≤ 5.52 | ≤ 5.00
2 | CNC(=O)c1ccc(NCc2nc(-c3cc4c(N[C@@H]5CCN(C)C[C@@H]5F)cccn4c3SC(F)(F)F)no2)nc1 [Example 54, 6-({[3-(8-{[(3S,4R)-3-fluoro-1-methylpiperidin-4-yl]amino}-3-[(trifluoromethyl)sulfanyl]indolizin-2-yl)-1,2,4-oxadiazol-5-yl]methyl}amino)-N-methylpyridine-3-carboxamide] | > 8.00 |  |  | < 750 | > 6.12 | > 6.12 | 
3 | CN1CC[C@@H](Nc2cccn3c(SC(F)(F)F)c(-c4noc(CNC(=O)c5ccc(-c6ccn[nH]6)s5)n4)cc23)[C@@H](F)C1 [Example 56, N-{[3-(8-{[(3S,4R)-3-fluoro-1-methylpiperidin-4-yl]amino}-3-[(trifluoromethyl)sulfanyl]indolizin-2-yl)-1,2,4-oxadiazol-5-yl]methyl}-5-(2H-pyrazol-3-yl)thiophene-2-carboxamide] | 7.00 to 8.00 |  |  | 750 to 1500 | > 6.12 | > 6.12 | 
4 | CNC(=O)c1ccc(C(=O)NCc2nc(-c3cc4c(N[C@@H]5CCN(C)C[C@@H]5F)cccn4c3SC(F)(F)F)no2)cc1 [Example 57, N1—{[3-(8-{[(3S,4R)-3-fluoro-1-methylpiperidin-4-yl]amino}-3-[(trifluoromethyl)sulfanyl]indolizin-2-yl)-1,2,4-oxadiazol-5-yl]methyl}-N4-methylbenzene-1,4-dicarboxamide] | > 8.00 |  |  | < 750 | > 6.12 | > 6.12 | 
5 | CNC(=O)c1cccc(C(=O)NCc2nc(-c3cc4c(N[C@@H]5CCN(C)C[C@@H]5F)cccn4c3SC(F)(F)F)no2)c1 [Example 58, N1—{[3-(8-{[(3S,4R)-3-fluoro-1-methylpiperidin-4-yl]amino}-3-[(trifluoromethyl)sulfanyl]indolizin-2-yl)-1,2,4-oxadiazol-5-yl]methyl}-N3-methylbenzene-1,3-dicarboxamide] | > 8.00 |  |  | < 750 | > 6.12 | > 6.12 | 
6 | CC(=O)NCc1nc(-c2cc3c(N[C@@H]4CCN(C)C[C@@H]4F)cccn3c2SC(F)(F)F)no1 [Example 59, N-{[3-(8-{[(3S,4R)-3-fluoro-1-methylpiperidin-4-yl]amino}-3-[(trifluoromethyl)sulfanyl]indolizin-2-yl)-1,2,4-oxadiazol-5-yl]methyl}acetamide] | > 8.00 |  |  | 750 to 1500 | 5.82 to 6.12 | > 6.12 | 
7 | CC(C)C(=O)NCc1nc(-c2cc3c(N[C@@H]4CCN(C)C[C@@H]4F)cccn3c2SC(F)(F)F)no1 [Example 60, N-{[3-(8-{[(3S,4R)-3-fluoro-1-methylpiperidin-4-yl]amino}-3-[(trifluoromethyl)sulfanyl]indolizin-2-yl)-1,2,4-oxadiazol-5-yl]methyl}-2-methylpropanamide] | 7.00 to 8.00 |  |  | 1500 to 3000 | 5.52 to 5.82 | 5.52 to 5.82 | 
8 | COC(C)(C)C(=O)NCc1nc(-c2cc3c(N[C@@H]4CCN(C)C[C@@H]4F)cccn3c2SC(F)(F)F)no1 [Example 61, N-{[3-(8-{[(3S,4R)-3-fluoro-1-methylpiperidin-4-yl]amino}-3-[(trifluoromethyl)sulfanyl]indolizin-2-yl)-1,2,4-oxadiazol-5-yl]methyl}-2-methoxy-2-methylpropanamide] | 7.00 to 8.00 |  |  | ≥ 3000 | ≤ 5.52 | ≤ 5.52 | 
9 | CN1CC[C@@H](Nc2cccn3c(SC(F)(F)F)c(-c4noc(CNC(=O)[C@H]5C[C@@H](O)C5)n4)cc23)[C@@H](F)C1 [Example 62, (1s,3s)-N-{[3-(8-{[(3S,4R)-3-fluoro-1-methylpiperidin-4-yl]amino}-3-[(trifluoromethyl)sulfanyl]indolizin-2-yl)-1,2,4-oxadiazol-5-yl]methyl}-3-hydroxycyclobutane-1-carboxamide] | > 8.00 |  |  | 1500 to 3000 | 5.52 to 5.82 | 5.82 to 6.12 | 
10 | C[C@@H](O)CC(=O)NCc1nc(-c2cc3c(N[C@@H]4CCN(C)C[C@@H]4F)cccn3c2SC(F)(F)F)no1 [Example 63, (3R)-N-{[3-(8-{[(3S,4R)-3-fluoro-1-methylpiperidin-4-yl]amino}-3-[(trifluoromethyl)sulfanyl]indolizin-2-yl)-1,2,4-oxadiazol-5-yl]methyl}-3-hydroxybutanamide] | > 8.00 |  |  | 1500 to 3000 | 5.52 to 5.82 | ≤ 5.52 | 
11 | C[C@H](O)CC(=O)NCc1nc(-c2cc3c(N[C@@H]4CCN(C)C[C@@H]4F)cccn3c2SC(F)(F)F)no1 [Example 64, (3S)—N-{[3-(8-{[(3S,4R)-3-fluoro-1-methylpiperidin-4-yl]amino}-3-[(trifluoromethyl)sulfanyl]indolizin-2-yl)-1,2,4-oxadiazol-5-yl]methyl}-3-hydroxybutanamide] | 7.00 to 8.00 |  |  | ≥ 3000 | ≤ 5.52 | ≤ 5.52 | 
12 | CN1CC[C@@H](Nc2cccn3c(SC(F)(F)F)c(-c4noc(CNC(=O)CC(C)(C)O)n4)cc23)[C@@H](F)C1 [Example 65, N-{[3-(8-{[(3S,4R)-3-fluoro-1-methylpiperidin-4-yl]amino}-3-[(trifluoromethyl)sulfanyl]indolizin-2-yl)-1,2,4-oxadiazol-5-yl]methyl}-3-hydroxy-3-methylbutanamide] | 7.00 to 8.00 |  |  | ≥ 3000 | ≤ 5.52 | ≤ 5.52 | 
13 | CN1CC[C@@H](Nc2cccn3c(SC(F)(F)F)c(-c4noc(CNC(=O)c5cnc(N6CCOCC6)o5)n4)cc23)[C@@H](F)C1 [Example 66, N-{[3-(8-{[(3S,4R)-3-fluoro-1-methylpiperidin-4-yl]amino}-3-[(trifluoromethyl)sulfanyl]indolizin-2-yl)-1,2,4-oxadiazol-5-yl]methyl}-2-(morpholin-4-yl)-1,3-oxazole-5-carboxamide] | > 8.00 |  |  | < 750 | > 6.12 | > 6.12 | 
14 | CN1CC[C@@H](Nc2cccn3c(SC(F)(F)F)c(-c4noc(CNC(=O)N5CCOCC5)n4)cc23)[C@@H](F)C1 [Example 67, N-{[3-(8-{[(3S,4R)-3-fluoro-1-methylpiperidin-4-yl]amino}-3-[(trifluoromethyl)sulfanyl]indolizin-2-yl)-1,2,4-oxadiazol-5-yl]methyl}morpholine-4-carboxamide] | > 8.00 |  |  | 750 to 1500 | 5.52 to 5.82 | 5.82 to 6.12 | 
